Assay results reported in US9939427B2, “Method for evaluating the scent performance of perfumes or perfume mixtures” (Symrise AG, priority 2013, dated 2018).

Legend:
OR4K2 = biological target: T1, OR4K2 (Homo sapiens, UniProt Q8NGD2); assay: Ca-imaging of OR4K2-transfected HEK293 cells; type: cell-based; parameters: key to OR4K2 responded to odorant: ▪: 18 olfactory receptors responded to 32 odorants in related with specific anosmia
T1 construct: specific primers, which amplify the complete open reading frame; expressed in transfected cells; host or cells: HEK293
T1 sequence (Q8NGD2 1-314): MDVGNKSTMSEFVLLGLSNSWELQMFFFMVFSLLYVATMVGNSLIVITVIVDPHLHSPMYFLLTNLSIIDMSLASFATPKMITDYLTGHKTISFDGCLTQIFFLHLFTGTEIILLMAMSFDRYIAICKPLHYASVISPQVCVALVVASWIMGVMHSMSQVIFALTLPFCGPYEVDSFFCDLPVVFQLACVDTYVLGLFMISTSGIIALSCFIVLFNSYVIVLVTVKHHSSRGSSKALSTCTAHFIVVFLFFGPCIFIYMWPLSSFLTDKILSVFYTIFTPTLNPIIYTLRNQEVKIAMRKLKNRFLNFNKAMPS
Experimental: HEK293 cells were cultivated in Petri dishes (Ø35 mm) as previously described (Benbernou et al. 2007). We grow up HEK293 cells in culture medium containing standard DMEM with 10% heat-inactivated fetal bovine serum, 2 mM L-glutamine, 100 units/ml penicillin, and 100 units/ml streptomycin in a humidified atmosphere (37° C., 5% CO2). After 2-3 days, the transfection process was carried out, whereby the cell culture was 70-80% confluent. The calciumphosphate method was applied to transfect DNA plasmid transiently in HEK293 cells in case of Ca-imaging method.
Calcium cations and phosphate anions created crystal precipitations coupled with DNA which could invade into the cells through endocytosis. Cells were transiently transfected with plasmid DNA which consists of pCI expression vector and PCR-amplified full-length cDNA of olfactory receptors candidates, and also Gα15, RTP1, Myr-Ric8A, HSC70, and m-Cherry as cofactors. The precipitation could be created after 15-20 min, with dropping the transfection solution on HEK293 cells. Before measuring by Ca-imaging cells were incubated 48-60 hours at 370 C, 5% CO2. Cationic liposome-mediated transfection method was applied to transfect DNA plasmid transiently in HANA3A cells in case of CRE-Luciferase and CRE-SEAP assays.
Calcium imaging of the transfected HEK293 cells was done by using chambers determinate an inverted microscope (Olympus; IX70) using a 10× objective (CPIanFL N Olympus). Fluorescence emission was determined every 4 s by using a CCD camera (Charge Coupled Device, C9100 Hamamatsu). The capillary tube which was responsible to supply odorants was generated closely above the cells. The columns filled with odorants, DMSO and ATP. Odorants were manually monitored to drop each 4-5 s to transfected cells. Solutions with drop wise form spread on HEK293 cells in 35 mm dishes.
In experiments, Fura-2 Acetoxymethylester (Fura-2/AM) was applied. The non-polar Fura2/AM is fluorescent but not yet calcium-sensitive. Once diffuses into cell plasma, Fura-2/AM is hydrolyzed to Fura-2 which is calcium-sensitive and functions as Ca2+ chelator. Regardless of the presence of calcium, Fura-2 emits at the wavelength of 510 nm. Once Fura-2 binds to free intracellular Ca2+ in cell plasma, its ratio of excitation at wavelengths of 340 nm and 380 nm is changed and correlated to the amount of intracellular Ca2+. According to this feature, the analysis of 340/380 nm excitation ratio for Fura-2 allows to quantify intracellular calcium levels.
In preparation for Ca-imaging measurements, transfected HEK293 cells were added 3 it Fura2/AM (3 μM) and incubated 30-45 min at 370 C, 5% CO2. After this step, experiments were carried out in a dark condition (Fura-2 is light-sensitive). After the incubation, medium of cell culture was replaced with 2 ml Ringer's solution.
Odorants were freshly prepared with DMSO as 1 M stocks solutions. Six mixtures (200 μM each chemical) were applied to cells sequentially (20 s each mixture/30 s Ringer). Those ORs tested with single odorants that had generated a response to odorant mixture group previously. Odorants were prepared in 100-200 μM concentration.
Ringer's solution was used for washing cells between measuring by two different odorants. Positive response was determined by the timing of the response, the strength of the response (more than twofold higher than the noise amplitude of the baseline), and the shape of the response curve (sharp rise in curve with gradual recovery). […]

OR10Q1-614 = assay: Ca-imaging of mutant OR10Q1 in HEK293 cells; type: cell-based, human; settings: 200 μM, applied for 20 seconds
Description: Mutations were introduced for OR1B1 and OR10Q1 by Overlap Extension PCR (OEP). […] Flanking primers in combination with internal primers provided mutated gene segments, Full length primers included EcoRI and NotI restriction sites for further cloning into pCI expression vector. Site-directed mutations were selected for base of minor allele frequency of nucleotide.
In mutagenesis by overlap extension PCR method, initial PCRs provided mutated gene segments, with overlapping complementary 3′ ends carrying desired point mutation that were then mixed and used as template for a subsequent PCR to generate the full-length product. Overlapping strands of these intermediate products hybridize at this 3′ region in a subsequent PCR and are extended to generate the full-length product amplified by flanking primers; this shown in FIG. 2. […]
Calcium imaging of the transfected HEK293 cells was done by using chambers determinate an inverted microscope (Olympus; IX70) using a 10× objective (CPIanFL N Olympus). Fluorescence emission was determined every 4 s by using a CCD camera (Charge Coupled Device, C9100 Hamamatsu). […] Odorants were manually monitored to drop each 4-5 s to transfected cells. […]
In experiments, Fura-2 Acetoxymethylester (Fura-2/AM) was applied. […] According to this feature, the analysis of 340/380 nm excitation ratio for Fura-2 allows to quantify intracellular calcium levels. […]

O=C1CCCCCCCCCCCCCCO1 [Pentadecanolide, ω-cyclopentadecanolide]
OR4K2 responded to odorant (OR4K2; HEK293 cells, individual odorant 200 μM, significant response p<0.05): ▪
Response of OR4K2 to odorant, in words (OR4K2; single odorants 200 μM): responded
Response of mutated OR10Q1 in comparison with OR10Q1 WT (OR10Q1-614): does not show any significant difference
Response of mutated OR10Q1 in comparison with OR10Q1 WT (OR10Q1-614; listed as pentadecalactone): did not show any difference
